Reference: BindingDB's records for doi:10.1016/j.bmcl.2006.12.086 (Valeant Pharmaceuticals Research and Development, 2007)

target: Serine/threonine-protein kinase pim-1 (Homo sapiens, UniProt P11309); assay: Radioactive Filter Plate Assay; conditions: pH 7.5; 23 °C
Protocol: PIM-1 kinase activity was evaluated using calf thymus histones as the substrate in a 96-well filter plate format. After incubation, the plate was washed and dried. The scintillation cocktail was added and the radioactivity counted on a TopCount plate reader (Perkin-Elmer).

Chain of Serine/threonine-protein kinase pim-1 (P11309 whole entry): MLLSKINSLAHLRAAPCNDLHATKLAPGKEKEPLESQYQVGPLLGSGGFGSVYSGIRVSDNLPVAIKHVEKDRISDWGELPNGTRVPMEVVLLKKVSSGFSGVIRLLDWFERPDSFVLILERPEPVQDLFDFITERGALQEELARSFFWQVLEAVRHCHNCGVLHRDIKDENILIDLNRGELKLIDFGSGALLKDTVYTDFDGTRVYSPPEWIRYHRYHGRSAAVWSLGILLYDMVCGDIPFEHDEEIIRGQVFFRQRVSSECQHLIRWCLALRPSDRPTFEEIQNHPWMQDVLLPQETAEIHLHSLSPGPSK

Structure (SMILES) | IC50
N#Cc1c(-c2cccs2)cc(C(F)(F)F)[nH]c1=O [2-oxo-4-(thiophen-2-yl)-6-(trifluoromethyl)-1,2-dihydropyridine-3-carbonitrile] | 3540 nM
N#Cc1c(-c2cccs2)c2c([nH]c1=O)-c1ccccc1SC2 [4-oxo-6-(thiophen-2-yl)-9-thia-3-azatricyclo[8.4.0.0^{2,7}]tetradeca-1(10),2(7),5,11,13-pentaene-5-carbonitrile] | 1490 nM
N#Cc1c(C(F)(F)F)cc(-c2ccco2)[nH]c1=O [6-(furan-2-yl)-2-oxo-4-(trifluoromethyl)-1,2-dihydropyridine-3-carbonitrile] | 16000 nM

These reach a lower IC50. Values come first.

IC50 | Structure (SMILES)
990 nM | N#Cc1c(-c2cccs2)cc(-c2cccs2)nc1O [2-oxo-4,6-bis(thiophen-2-yl)-1,2-dihydropyridine-3-carbonitrile]
870 nM | N#Cc1c(-c2ccco2)c2c([nH]c1=O)-c1ccccc1OC2 [6-(furan-2-yl)-4-oxo-9-oxa-3-azatricyclo[8.4.0.0^{2,7}]tetradeca-1(14),2(7),5,10,12-pentaene-5-carbonitrile]
460 nM | N#Cc1c(-c2cccs2)c2c([nH]c1=O)-c1ccccc1OC2 [4-oxo-6-(thiophen-2-yl)-9-oxa-3-azatricyclo[8.4.0.0^{2,7}]tetradeca-1(14),2(7),5,10,12-pentaene-5-carbonitrile]
